Like-named read-outs stand apart in the source and are kept apart here. Some results are limits rather than exact numbers.

Data on 15 compounds can be found in US20250163057A1, “DCN-1 MODULATING COMPOUNDS AND METHODS OF USE THEREOF” (Cellarity, Inc., priority 2023, published 2025).

The target in data set [1] is T1, DCN1 (DCUND1) protein PONY domain (Homo sapiens (Human), UniProt Q96GG9). Put plainly: TR-FRET assay, DCN1 binding with FAM-labeled probe. Summed up:
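TR-FRET ratio (Tb-DCN1 to FAM-probe) read at 1, 5 and 24 hrs after compound addition. Protein: recombinant PONY domain from E. coli, biotinylated and coupled to streptavidin terbium. Either 5 nM DCN1 with 20 nM FAM-probe, or 0.31 nM DCN1 with 100 nM FAM-labelled plus 800 nM unlabelled probe.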
(In general: TR-FRET usually uses a lanthanide donor and a delayed reading to cut background.)

For data set [2], the target named is T1, DCN1 (DCUND1) protein PONY domain. Put plainly: Off-rate measurement of reversible covalent molecules (jump dilution TR-FRET with Cy5 probe). The class given is binding. Particulars: for Category: binding mode category from off-rate assay; for residence time: inverse of rate constant K; for residence time / half-life: jump dilution TR-FRET; for koff: jump dilution, Cy5 covalent probe 150 nM, TR-FRET; for half-life: ln(2)/K. An excerpt:
A typical covalent compound is assumed to stay bound to a protein for at least the life of that protein in the cell. In reality, there is a range of how long a covalent compounds remains bound before a reverse reaction takes place. Thus, some covalent bonds can be labeled as reversible as their reverse reaction takes place in a measurable amount of time under physiological conditions. The assay capitalizes on the range of covalent binders by using a high affinity covalent binder as a probe to displace the more reversible binders in an adaptation of the jump dilution method.
In this version of the jump dilution method, the increase in covalent probe binding over time was measured through a TR-FRET reaction between the covalent probe and the biotinylated target protein.
The recombinant form of the DCN1 (DCUND1) protein PONY domain was produced using an E. coli expression system at Viva Biotech (China). The DCN1 protein was biotinylated (EZ sulfo-NHS-LC-biotin; Thermofisher) for labeling with streptavidin terbium (Tb) cryptate in the reaction. This biotinylated protein was used in two forms of the TR-FRET assay as described below.
The off-rate measurement is executed in two steps based on the jump dilution method. […] The greatest dilution allowed within the constraints of the assay was chosen. These factors allow a competitive advantage for the covalent probe to replace the test compound when that compound releases from the target protein. The actual measure is the rate of increased TR-FRET signal as the covalent probe replaces the test compound over time. […] The resulting time dependent curve of the TR-FRET signal is fit to the following equation:
Y=Y0+(Plateau−Y0)*(1−exp(−K*x))
K is the rate constant (1/unit of time). The residence time is defined as the inverse of K, the rate constant. The half-life is calculated as ln(2)/K.

A further data set has as its target DCN1 protein (Homo sapiens (Human), UniProt Q96GG9). Kind of data set: Intact Protein MS Analysis with the RapidFire-TOF System (covalent adduct formation). The class given is binding. Particulars: MS Emax; 400 nM DCN1, 3 hours at room temperature. Summed up:
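Tag-cleaved human DCN1 (400 nM) expressed in E. coli, in 25 mM Tris-HCl, 200 mM NaCl, 1 mM DTT, was incubated with 11 compound concentrations for 3 h at room temperature and quenched with 0.2% formic acid. Intact-protein Q-TOF MS with deconvolution detected the compound adduct mass.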

Where [3] appears, read: 24 hr after treatment with compound, read-out: TR FRET IC50 24 hr.
Setting [4] is: read-out: TR FRET IC50 1 hr, 1 hr after treatment with compound.

T1 sequence (Q96GG9 60-248): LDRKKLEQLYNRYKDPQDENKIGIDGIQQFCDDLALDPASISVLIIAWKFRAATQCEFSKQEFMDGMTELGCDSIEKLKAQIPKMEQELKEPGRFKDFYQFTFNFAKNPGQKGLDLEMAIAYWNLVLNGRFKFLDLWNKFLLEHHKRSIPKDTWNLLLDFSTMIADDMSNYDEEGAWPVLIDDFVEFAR
DCN1 protein, sequence (Q96GG9 whole entry): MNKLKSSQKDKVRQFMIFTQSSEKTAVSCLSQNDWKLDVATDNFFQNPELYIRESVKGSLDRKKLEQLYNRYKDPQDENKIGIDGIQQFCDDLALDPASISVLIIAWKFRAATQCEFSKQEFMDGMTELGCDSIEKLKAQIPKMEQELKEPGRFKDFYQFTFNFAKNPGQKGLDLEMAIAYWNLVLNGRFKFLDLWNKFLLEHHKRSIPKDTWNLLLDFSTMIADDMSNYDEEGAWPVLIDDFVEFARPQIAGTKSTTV

As a reminder, the IC50 is the midpoint of a concentration-inhibition curve. In general, koff refers to the first-order rate constant of dissociation. The half-life is the time in which the quantity being followed falls by half. A higher half-life goes with slow decline. Regarding `CCN1C(=O)[C@@H](NC(=O)c2cccc(C(F)(F)F)c2)[C@@H](C2CC2)c2c(C(=O)N3CCS(=O)(=O)C[C@H]3C#N)nn(C3CCOCC3)c21` (mixture of isomers) [Compound I-379], in data set [1] (setting [3]), the concentration for half-maximal inhibition (IC50) was at most 200 nM. For the same compound, in data set [1] (setting [4]), the half-inhibitory concentration (IC50) is at most 200 nM. In data set [2], the Category result was “reversible covalent”, the residence time came to 78.9 min, the off-rate (koff) is 0.000211 s⁻¹ and the half-life stood at 0.9115 h. Moreover, on DCN1 protein, the “% Adduct Formation” value is “+++ (MS Emax % adduct formation greater than 80.0 and less than or equal to 100.0)”.

Regarding `CCN1C(=O)[C@@H](NC(=O)c2cccc(C(F)(F)F)c2)[C@@H](c2ccc(F)cc2)c2c([C@@H](C)NC#N)nn(-c3ccccc3)c21` [Compound I-73, N-((4S,5S)-3-((R)-1-cyanamidoethyl)-7-ethyl-4-(4-fluorophenyl)-6-oxo-1-phenyl-4,5,6,7-tetrahydro-1H-pyrazolo[3,4-b]pyridin-5-yl)-3-(trifluoromethyl)benzamide], the IC50 in data set [1] (setting [3]) and in data set [1] (setting [4]) was at most 200 nM throughout. For the same compound, the Category result in data set [2] is “irreversible covalent”. Moreover, the “% Adduct Formation” value at DCN1 protein is “+++ (MS Emax % adduct formation greater than 80.0 and less than or equal to 100.0)”.

Take `CCN1C(=O)[C@@H](NC(=O)c2cccc(C(F)(F)F)c2)[C@@H](c2ccc(F)cc2)c2c(CNC#N)nn(-c3ccccc3)c21` [Compound I-140, N-[(4S, 5S)-3-[(cyanoamino)methyl]-7-ethyl-4-(4-fluorophenyl)-6-oxo-1-phenyl-4,5-dihydropyrazolo[3,4-b]pyridine-5-yl]-3-(trifluoromethyl) benzamide]: the half-inhibitory concentration (IC50) in data set [1] (setting [3]) and in data set [1] (setting [4]) was at most 200 nM each time. On DCN1 protein, the “% Adduct Formation” value was “+++ (MS Emax % adduct formation greater than 80.0 and less than or equal to 100.0)”.

In the case of `CCN1C(=O)[C@@H](NC(=O)c2cccc(C(F)(F)F)c2)[C@@H](C2CC2)c2c(C(=O)N3[C@H](C#N)C[C@H]4C[C@H]43)nn(C3CCOCC3)c21` [Compound I-256, N-((4S,5S)-3-((1R,3S,5R)-3-cyano-2-azabicyclo[3.1.0]hexane-2-carbonyl)-4-cyclopropyl-7-ethyl-6-oxo-1-(tetrahydro-2H-pyran-4-yl)-4,5,6,7-tetrahydro-1H-pyrazolo[3,4-b]pyridin-5-yl)-3-(trifluoromethyl)benzamide], the half-inhibitory concentration (IC50) in data set [1] (setting [3]) was at most 200 nM. The half-maximal inhibitory concentration (IC50) in data set [1] (setting [4]) was at most 200 nM. In addition, in data set [2], the Category result was “slow reversible”, the residence time was 219 min, the off-rate constant (koff) was 7.96e-05 s⁻¹ and the half-life stood at 2.535 h. In addition, the “% Adduct Formation” value on DCN1 protein is “+++ (MS Emax % adduct formation greater than 80.0 and less than or equal to 100.0)”.

Regarding `CCN1C(=O)[C@@H](NC(=O)c2cccc(C(F)(F)F)c2)[C@@H](c2ccc(F)cc2)c2c(C(=O)N3[C@H](C#N)C[C@H]4C[C@H]43)nn(-c3ccccc3)c21` [Compound I-277], the IC50 in data set [1] (setting [3]) and in data set [1] (setting [4]) was at most 200 nM throughout. For the same compound, at DCN1 protein, the “% Adduct Formation” value was “+++ (MS Emax % adduct formation greater than 80.0 and less than or equal to 100.0)”.

As to `CCN1C(=O)[C@@H](NC(=O)c2cccc(C(F)(F)F)c2)[C@@H](c2ccc(F)cc2)c2c(C(=O)N3CCC[C@H]3C#N)nn(-c3ccccc3)c21` [Compound I-278], the IC50 is at most 200 nM in data set [1] (setting [3]) and 200 to 1000 nM in data set [1] (TR FRET IC50 1 hr (nM), 1 hr after treatment with compound). In addition, the “% Adduct Formation” value at DCN1 protein is “+++ (MS Emax % adduct formation greater than 80.0 and less than or equal to 100.0)”.

`CCN1C(=O)[C@@H](NC(=O)c2cccc(C(F)(F)F)c2)[C@@H](c2ccc(F)cc2)c2c(C(=O)N3CCNCC3C#N)nn(C3CCOCC3)c21` (stereo partly shown) [Compound I-334]: the IC50 in data set [1] (setting [3]) and in data set [1] (setting [4]) was at most 200 nM each time. The “% Adduct Formation” value on DCN1 protein was “+++ (MS Emax % adduct formation greater than 80.0 and less than or equal to 100.0)”.

Take `CCN1C(=O)[C@@H](NC(=O)c2cccc(C(F)(F)F)c2)[C@@H](c2ccc(F)cc2)c2c(C(=O)N3CCC[C@H]3C#N)nn(C3CCOCC3)c21` [Compound I-350]: the IC50 in data set [1] (setting [3]) is at most 200 nM. The IC50 in data set [1] (setting [4]) was at most 200 nM. Besides, in data set [2], the Category entry is listed as “slow reversible”, the residence time came out at 699 min, the off-rate (koff) is 2.64e-05 s⁻¹ and the half-life stood at 8.07 h. The “% Adduct Formation” value at DCN1 protein was “++ (MS Emax % adduct formation greater than 30.0 and less than or equal to 80.0)”.

In the case of `CCN1C(=O)[C@@H](NC(=O)c2cccc(C(F)(F)F)c2)[C@@H](c2ccc(F)cc2)c2c(C(=O)N3CCNC[C@H]3C#N)nn(C3CCOCC3)c21` [Compound I-363, N-((4S,5S)-3-((S)-2-cyanopiperazine-1-carbonyl)-7-ethyl-4-(4-fluorophenyl)-6-oxo-1-(tetrahydro-2H-pyran-4-yl)-4,5,6,7-tetrahydro-1H-pyrazolo[3,4-b]pyridin-5-yl)-3-(trifluoromethyl)benzamide], the IC50 in data set [1] (setting [3]) and in data set [1] (setting [4]) was at most 200 nM each time. Further, the Category result in data set [2] was “slow reversible”. The “% Adduct Formation” value on DCN1 protein was “+++ (MS Emax % adduct formation greater than 80.0 and less than or equal to 100.0)”.

On to `CCN1C(=O)[C@@H](NC(=O)c2cccc(C(F)(F)F)c2)[C@@H](C2CC2)c2c(C(=O)N3C[C@H](F)C[C@H]3C#N)nn(C3CCOCC3)c21` [Compound I-372], for which the IC50 in data set [1] (setting [3]) and in data set [1] (setting [4]) was at most 200 nM in each case. Further, the “% Adduct Formation” value on DCN1 protein is “+++ (MS Emax % adduct formation greater than 80.0 and less than or equal to 100.0)”.

On to `CCN1C(=O)[C@@H](NC(=O)c2cccc(C(F)(F)F)c2)[C@@H](C2CC2)c2c(C(=O)N3C[C@H](OC)C[C@H]3C#N)nn(C3CCOCC3)c21` [Compound I-377], for which the IC50 in data set [1] (setting [3]) and in data set [1] (setting [4]) was at most 200 nM throughout. Besides, the “% Adduct Formation” value at DCN1 protein is “+++ (MS Emax % adduct formation greater than 80.0 and less than or equal to 100.0)”.

On to `CCN1C(=O)[C@@H](NC(=O)c2cccc(C(F)(F)F)c2)[C@@H](C)c2c(C(=O)N3[C@H](C#N)C[C@H]4C[C@H]43)nn(C3CCOCC3)c21` [Compound I-387], for which, in data set [2], the Category entry is “reversible covalent”, the residence time stood at 144 min, the dissociation rate constant (koff) was 0.000116 s⁻¹ and the half-life is 1.67 h. In addition, on DCN1 protein, the “% Adduct Formation” value was “+++ (MS Emax % adduct formation greater than 80.0 and less than or equal to 100.0)”.

For `CCc1cccc(C(=O)N[C@@H]2C(=O)N(CC)c3c(c(C(=O)N4[C@H](C#N)C[C@H]5C[C@H]54)nn3C3CCOCC3)[C@@H]2C2CC2)c1` [Compound I-552, N-((4S,5S)-3-((1R,3S,5R)-3-cyano-2-azabicyclo[3.1.0]hexane-2-carbonyl)-4-cyclopropyl-7-ethyl-6-oxo-1-(tetrahydro-2H-pyran-4-yl)-4,5,6,7-tetrahydro-1H-pyrazolo[3,4-b]pyridin-5-yl)-3-ethylbenzamide], the half-maximal inhibitory concentration (IC50) in data set [1] (setting [3]) was at most 200 nM. In addition, the concentration for half-maximal inhibition (IC50) in data set [1] (setting [4]) is at most 200 nM. Further, in data set [2], the Category result was “reversible covalent”, the residence time stood at 224 min, the koff was 7.5e-05 s⁻¹ and the half-life turned out to be 2.593 h.

With `CCN1C(=O)[C@@H](NC(=O)c2cccc(C(F)(F)F)c2)[C@@H](C2CC2)c2c(C(=O)N3CCNC[C@H]3C#N)nn(C3CCOCC3)c21` [Compound I-582], the IC50 in data set [1] (setting [3]) and in data set [1] (setting [4]) was at most 200 nM throughout. Besides, the Category result in data set [2] is “irreversible covalent”.

With `CCN1C(=O)[C@@H](NC(=O)c2cccc(C(F)(F)F)c2)[C@@H](C2CC2)c2c(C(=O)N3CS(=O)(=O)C[C@H]3C#N)nn(C3CCOCC3)c21` [Compound I-617], the concentration for half-maximal inhibition (IC50) in data set [1] (setting [3]) is at most 200 nM. Besides, the IC50 in data set [1] (setting [4]) was at most 200 nM. In addition, in data set [2], the Category entry was “fast reversible”, the residence time worked out at 66.3 min, the koff is 0.000251 s⁻¹ and the half-life amounted to 0.7658 h.
